The target in one series is THRα (Homo sapiens, UniProt P10827). As to the kind of experiment: HTRF test of agonist-induced SRC3-2 coactivator peptide recruitment to THRα-LBD. The series is classed as biochemical. As to the method: (§1) 1. Experiment of binding of compounds to THRβ and THRα
(§2) Test principle: The effect of test compounds on THRβ and THRα was tested by using a method of HTRF. An MAb Anti GST-Eu cryptate antibody binds to GST-tagged THRα-LBD (or THRβ-LBD), while Streptavidin-XL665 binds to a biotin-labeled SRC3-2 coactivator peptide. […] At the same time, the resulting decrease in the distance between XL665-labeled SRC3-2 and an Eu-anti-GST antibody increases a THRFRET signal. The agonistic capacity at this target was assessed by the effect of compounds on the activity of THRα-LBD (THRβ-LBD) at different concentrations.
(§3) • (1) a 1×reaction solution was prepared. • (2) Preparation of compounds: the compound test starting concentration was 20 µM, 3-fold dilution was performed, 10 concentrations were set, and duplicate testing was set for each concentration. 100-fold dilution was performed in a 384-well Source plate to a corresponding solution with a final concentration, and then 200 nL of the solution was transferred to a 384-well reaction plate with Echo550 to be tested. 200 nL of 100% DMSO and a test article were respectively transferred to Min and Max wells. • (3) A 2×protein solution was prepared from the 1×reaction solution. • (4) A 4×SRC3-2 solution was prepared from the 1×reaction solution. • (5) A mixed solution of 4×GST-Eu cryptate and XL665 was prepared from the 1×reaction solution. • (6) 10 µl of the 2×protein solution was added to each well of the reaction plate, centrifugation was performed at 1000 rpm for 1 min, and incubation was performed at room temperature for 30 min. • (7) 5 µl of the 4×SRC3-2 solution was added to each well of the reaction plate, and centrifugation was performed at 1000 rpm for 1 min. • (8) 5 µL of the mixed solution of 4×GST-Eu cryptate and XL665 was added to each well of the reaction plate, centrifugation was performed at 1000 rpm for 1 min, and incubation was performed at 25°C. • (9) A fluorescence signal was read by using EnVision.
THRα test procedures were the same as above.
On the technique in general: TR-FRET usually uses a lanthanide donor and a delayed reading to cut background.

Another series has as its target T1, THRβ (Homo sapiens, UniProt P10828).
T1 sequence (P10828 217-461 limits assumed): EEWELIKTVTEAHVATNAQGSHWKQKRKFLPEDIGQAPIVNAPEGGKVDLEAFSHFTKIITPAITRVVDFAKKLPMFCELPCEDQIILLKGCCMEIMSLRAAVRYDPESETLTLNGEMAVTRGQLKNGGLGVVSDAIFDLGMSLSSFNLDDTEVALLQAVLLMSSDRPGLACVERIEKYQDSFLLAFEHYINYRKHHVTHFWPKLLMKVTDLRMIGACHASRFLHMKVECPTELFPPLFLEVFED
Briefly: HTRF test of agonist-induced SRC3-2 coactivator peptide recruitment to THRβ-LBD. It is filed as biochemical. As to the method:
as §1, §2
Test method: THRβ test procedures:
as §3

Series [1] can be described thus: In vivo pharmacokinetic study of elimination phase half-life after single IV bolus. Also on record: species or system Sprague Dawley rats. Particulars: rat, blood, iv, I.V bolus, 5 mg/kg, rats, read-out: Elimination phase half-life (T1/2) (converted). As to the method: Blood samples were collected from animals (IV group) before administration and at time points of 0.083 h, 0.25 h, 0.5 h, 1 h, 2 h, 4 h, 8 h, and 24 h after the end of administration. • Sample treatment: prior to blood collection, a centrifuge tube with 10 µl of EDTA-K2 and 1.2 mL of 50% acetonitrile-DMSO (a volume ratio of whole blood to 50% acetonitrile-DMSO is approximately 1:4) was placed in an ice box filled with crushed ice. The collected blood was added to the centrifuge tube, vortexed for at least 5 min, and then temporarily stored and transported in the ice box filled with crushed ice; and the blood was centrifuged at 12,000 g for 10 min at 4°C, wherein centrifugation was completed within 1 h after blood collection. A whole blood supernatant after centrifugation was transferred to a newly labeled tube, and transferred to -60°C or below for storage for analytical testing.

THRα, sequence (P10827 148-410 isoform P10827-2 limits assumed, other chains not shown): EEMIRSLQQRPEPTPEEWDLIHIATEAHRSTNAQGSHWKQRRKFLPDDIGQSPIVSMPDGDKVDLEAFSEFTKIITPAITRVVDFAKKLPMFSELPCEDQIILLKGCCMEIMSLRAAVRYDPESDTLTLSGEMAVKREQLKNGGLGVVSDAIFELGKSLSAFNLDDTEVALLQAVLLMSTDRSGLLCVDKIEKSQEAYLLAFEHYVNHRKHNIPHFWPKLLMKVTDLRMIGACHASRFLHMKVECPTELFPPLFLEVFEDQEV

The term EC50 denotes the concentration needed to bring the measured effect to its halfway point. Regarding `[2H]C([2H])([2H])C(c1c(C)c(Oc2c(Cl)cc(-n3nc(CF)c(=O)[nH]c3=O)cc2Cl)n[nH]c1=O)C([2H])([2H])[2H]` [Compound 6], the 50% effective concentration (EC50) at THRα (HTRF, starting concentration 20 µM, 3-fold dilution, 10 concentrations, duplicate) is > 5 µM. For the same compound, the “agonistic activity on THRα” value on THRα (result in words) is listed as “weak agonistic activity on THRα”. The EC50 at THRβ (HTRF, starting concentration 20 µM, 3-fold dilution, 10 concentrations, duplicate, read-out: THRβ (EC50)) amounted to 6.5 nM. Moreover, at THRβ (result in words), the “agonistic activity on THRβ compared with Resmetirom” value is on record as “significantly better than that of Resmetirom” and the “selectivity of agonistic effect for THRβ over THRα” value is “selective agonistic effects on THRβ”. Moreover, the half-life in series [1] is 468 min.

For the origin of these results see EP4763841A1, “PYRIDAZINONE COMPOUND AND USE THEREOF” (Xi'an Xintong Pharmaceutical Research Co., Ltd., priority 2023, dated 2025).
